Data set [1] in a line: in vivo. The note with it: rat, 1 mg/kg.
The nature of data set [2]: in vivo. The note with it: rat, 1 mg/kg. The source holds these as a separate data set.
The nature of data set [3]: in vivo. The note with it: rat, po, 1 mg/kg.
Data set [4] in a line: in vivo. The note with it: rat, 1 mg/kg. The source holds these as a separate data set.

Take `Cc1nc2ccccc2n1[C@H]1C[C@H]2CC[C@@H](C1)N2CCC1(c2ccccc2)CCN(C(C(=O)O)c2ccccc2)CC1` (some centres not stated): the clearance in the data set “in vivo [1]” is 117 mL/min/kg. This compound showed a Vd in “in vivo [2]” of 3.5 L/kg. This compound also displayed a bioavailability in “in vivo [3]” of 0%.

With `CNC(=O)C(c1ccc(F)cc1)N1CCC(CCN2[C@@H]3CC[C@H]2C[C@@H](n2c(C)nc4ccccc42)C3)(c2cccc(F)c2)CC1` (some centres not stated), the clearance in “in vivo [1]” turned out to be 43 mL/min/kg. In “in vivo [4]”, this compound gave a half-life of 6.1 h. In “in vivo [2]”, this compound yielded a Vd of 16.5 L/kg. Moreover, the bioavailability in the data set “in vivo [3]” came out at 37%.

Usually clearance stands for the rate of elimination divided by the concentration. By Vd is commonly meant a proportionality between amount in the body and measured concentration, not a real space. Low values mean little distribution into tissue, high ones wide distribution into tissue. The bioavailability is dose-corrected exposure relative to a reference, in per cent. Low values mean little systemic uptake, high ones much systemic uptake. As usually defined, the half-life is how long it takes for the measured level to halve.

For the origin of these results see ChEMBL document CHEMBL1153314, “[2-(4-Phenyl-4-piperidinyl)ethyl]amine based CCR5 antagonists: derivatizations at the N-terminal of the piperidine ring” (Bioorg Med Chem Lett, 2009).
